This is an account of results in patent US20020016299A1, “APOPTOSIS INDUCERS” (priority 1996, published 2002).

*1 amine or outer side, *2 acyl side, *3 side chain or, on linkers, in order; H or OH if unused. Where a SMILES comes first, the peptide text is derived from it. Bridges are numbered along the chain shown (N, C = ends). Roman numbers before positions name the chains, in order. [ ]: non-standard residue; d: D form. Actinocin(9to1) = Cc1c2oc3c(C)ccc(C(=O)[*:1])c3nc-2c(C(=O)[*:2])c(N)c1=O; NMeV = CN[C@H](C(=O)O)C(C)C; Sar = CNCC(=O)O

The assay concerns HL-60 (ATCC CL-240). Nature of the assay: Apoptosis inducing activity: microscope observation and living cell count of HL-60 culture. To be noted: HL-60 cells; for activity of suppressing the growth of cancer cells: method of Example 1-(4). It is filed as cell-based. Here is the method:
Apoptosis inducing activity of the above fraction B and the pure product mentioned in Example 1-(3) was measured as follows. Thus, 0.5 ml of aqueous solution of the fraction B or of said pure product was added to 2.5×10^5 cells/4.5 ml of HL-60 (ATCC CL-240) cultured in an RPMI 1640 medium containing 10% of fetal calf serum and incubated at 37° C. for 48 hours. At the same time, distilled water and an Actinomycin D solution (10 μg/ml) which was known to have an apoptosis inducing activity were added to prepare control samples. Formation of apoptic bodies, contraction of cells and aggregation of nuclei were observed by naked eye under a microscope whereby the living cell numbers were counted. When such phenomena were observed and a reduction in living cell numbers was recognized, it was decided that an apoptosis inducing activity was positive.
Each of the concentrated extracts of Lyophyllum ulmarium was diluted with a 75% or 50% aqueous solution of ethanol. The diluted solution was assayed by an MTT method mentioned in Example 7. […] Thus, it was confirmed that, under the conditions of extracting with a 75% aqueous solution of ethanol and a 50% aqueous solution of ethanol, substances which are active for suppressing the growth of cancer cells were extracted. Further, an apoptosis inducing activity was measured using those concentrated extracts of Lyophyllum ulmarium. Thus, 25 μl of each of the above-mentioned concentrated extracts was used as a sample, ethanol was evaporated therefrom, the residue was added to 2.5×10^5 HL-60 cells/4.5 ml which were incubated in an RPMI 1640 medium containing 10% of fetal calf serum and incubation was conducted at 37° C. for 48 hours. At the same time, control samples were prepared by adding distilled water and an Actinomycin D solution (10 μg/ml) which was known to have an apoptosis inducing activity. Formation of apoptic bodies, contraction of cells and aggregation of nuclei were observed by naked eye under an optical microscope and the numbers of living cells were counted. When such a phenomenon was observed and a reduction in living cell numbers was noted, the sample was judged to have an apoptosis inducing activity.

[1] abbreviates: 37° C., 48 hours, apoptic bodies, contraction of cells, aggregation of nuclei and reduction in living cell numbers.

In the case of monogalactosyl diglyceride, the “activity of suppressing the growth of cancer cells” value (“activity … of cancer cells” below) (37° C., 48 hours) is reported as “confirmed”. Under setting [1], the apoptosis inducing activity result is “strong apoptosis inducing action”.

On to `Cc1c2oc3c(C)ccc(C(=O)N[C@@H]4C(=O)N[C@H](C(C)C)C(=O)N5CCC[C@H]5C(=O)N(C)CC(=O)N(C)[C@@H](C(C)C)C(=O)O[C@@H]4C)c3nc-2c(C(=O)N[C@@H]2C(=O)N[C@H](C(C)C)C(=O)N3CCC[C@H]3C(=O)N(C)CC(=O)N(C)[C@@H](C(C)C)C(=O)O[C@@H]2C)c(N)c1=O` [Actinomycin D, reference compound] (I: T[dV]P[Sar][NMeV] / II: T[dV]P[Sar][NMeV]; ester I:1-I:C, II:1-II:C; linker I:N-II:N via Actinocin(9to1)), for which the apoptosis inducing activity entry (Actinomycin D solution (10 μg/ml) added as control sample) is “apoptosis inducing activity was confirmed”.

Regarding Monogalactosyl diglyceride, the “activity … of cancer cells” value (37° C., 48 hours) is reported as “confirmed”. For the same compound, under setting [1], the apoptosis inducing activity result was “strong apoptosis inducing action”.

Consider digalactosyl diglyceride, for which the “activity … of cancer cells” value (37° C., 48 hours) is “confirmed”. For the same compound, the apoptosis inducing activity result under setting [1] was “strong apoptosis inducing action”.
